Data: patent US6528517B1, “Synthesis of quinobenzoxazine analogues with topoisomerase II and quadruplex interactions for use as antineoplastic agents” (Board of Regents, The University of Texas System, priority 1998, dated 2003)

How the values were obtained:
DU-145 prostate = experiment: Cancer cell growth inhibition assay (MTT); format: cell-based, human
Description: (§1) Exponentially growing cells in 0.1 ml medium were seeded on Day 0 in 96-well microtiter plates. On Day 1, 0.1-ml aliquots of medium containing graded concentrations test agent were added in duplicate to the cell plates. After incubation at 37° C. in a humidified incubator, the plates were centrifuged briefly (1-2 min at 1000 rpm), and 100 μl of the growth medium was removed. Cell cultures were incubated with 50 μl of 3-(4,5-dimethylthiazyl-2-yl)-2,5-diphenyltetrazolium bromide MTT, 1 mg/ml in Dubecco's PBS for 4 h at 37° C. The resulting purple formazan precipitate was solubilized with 200 μl of 0.4 N HCl in isopropyl alcohol. Absorbance was quantitated using a Bio-Rad Model 3550 microplate reader at a test wavelength of 570 nm and a reference wavelength of 630 nm. Absorbance values were transferred to a 486 personal computer, and the IC50 values were determined using the computer program EZ-ED50 (Chen et al., 1993).

Raji lymphoma = experiment: Cancer cell growth inhibition assay (MTT); format: cell-based, human
Description: as §1

MDA-231 breast = experiment: Cancer cell growth inhibition assay (MTT); format: cell-based, human
Description: as §1

H226 non-small-cell lung = experiment: Cancer cell growth inhibition assay (MTT); format: cell-based, human
Description: as §1

HT-29 colon = experiment: Cancer cell growth inhibition assay (MTT); format: cell-based, human
Description: as §1

B16 melanoma = experiment: Cancer cell growth inhibition assay (MTT); format: cell-based, murine
Description: as §1

human topoisomerase II = biological target: T1, human topoisomerase II (Homo sapiens, UniProt P11388); experiment: Decatenation assay (catenated to decatenated KDNA); format: biochemical; details: drug concentration that inhibits 50% of conversion of catenated to decatenated KDNA; read-out: topoisomerase II inhibition IC50
T1 construct: purchased TopoGEN, Inc
Description: Kinetoplast DNA (KDNA), human topoisomerase II (170 KDa form), and DNA Unwinding Kit including supercoiled pHOT1 DNA, relaxed DNA marker, buffers, and human topoisomerase I were purchased from TopoGEN, Inc. Agarose was purchased from Fisher. Quinobenzoxazine A-62176 (S-enantiomer) was provided by Abbott Laboratories or prepared by published procedure (Chu and Maleczka, Jr., 1987).
0.25 μg of KDNA was incubated with various concentrations of the quinobenzoxazines in a 20-μl reaction mixture containing 50 mM Tris-HCl (pH 8), 120 mM KCl, 10 mM MgCl2, and 0.5 mM each of ATP, dithiothreitol, and […] BSA for 10 min. Two units of human topoisomerase II (170 KDa form) were added to the mixture, which was then incubated at 37° C. for 30 min. The reaction was terminated with 0.1 volume of stop buffer (5% sarkosyl, 0.025% bromophenol blue, and 50% glycerol). The decatenation products were analyzed on 1% agarose gels run with 0.5 μg/ml ethidium bromide. The gels were scanned by FluoroImager and analyzed by ImageQuaNT software (Molecular Dynamics).

supercoiled pHOT1 DNA = experiment: DNA unwinding assay; format: biochemical; details: concentration shifting topoisomers to the middle position between relaxed and supercoiled bands
Description: A 22 μl mixture of 0.25 μg of supercoiled pHOT1 DNA, 5 units of topoisomerase I in topoisomerase I buffer (provided with the kit) was incubated at 37° C. for 30 min. Two μl of various concentrations of drug was added, and the incubation was continued for another 30 min. The reactions were terminated by addition of SDS to 1%. Proteinase K was added to the reaction mixtures to ca. 50 μg/ml, and the reaction mixtures were incubated for 15-20 min at 56° C. After adding 0.1 volume of 10×gel loading buffer, the reaction mixtures were extracted with an equal volume of CIA (Chloroform:isoamyl Alcohol; 24:1). The samples were loaded on an 1% agarous gel that was cast in TPE buffer (36 mM Tris-HCl, pH 7.8, 1 mM EDTA, 30 mM NaH2PO4) and 0.2 μg/ml Chloroquine. The gel was run in TPE buffer at room temperature at 10 volts for 20 h, destained in water for 15 min, stained in 0.05 μg/ml ethidium bromide for 15 min, and destained again in water for 15 min. The gel was then photographed, scanned by FluoroImager, and analyzed by ImageQuaNT software (Molecular Dynamics).

[1] = test system: human DNA G-quadruplex d(TTAGGG)4; experiment: NMR imino proton titration with G-quadruplex DNA; format: binding; details: overall stoichometry 1:1
Description: (C) Compounds may be selected for their ability to interact with human DNA G-quadruplex as indicated by NMR spectroscopy. The imino proton spectrum (9-12 ppm) of a solution of d(TTAGGG)4 in D2O/H2O (10:90) was determined at 500 MHz. Aliquot of N,N′-bis(2-piperdinoethyl)-3,4,9,10-perylenetetracarboxylic acid diimide were added and the imino proton spectrum recorded.

human telomerase = experiment: Telomerase inhibition assay (HeLa cell extract); format: biochemical
Description: The assay used crude HeLa cell extract as the source of human telomerase. It measures the incorporation of ^32P-labeled dGTP into the primer extension of human telomere synthesis (Sun et al., 1998). […] Specific examples of such dual-acting compounds include compounds 2b and 2a (FIG. 3).
The assay was performed by using 5′-end biotinylated d[TTAGGG]3 as the telomere primer. Reaction mixtures (20 μl) containing 5 μl cell lysate (S-100), 50 mM Tris-OAc (pH 8.5), 50 mM K-OAc, 1 mM MgCl2, 5 mM BME, 1 mM spermidine, 1 μM telomere primer, 1.5 μM [α-^32P]-dGTP (800 Ci/mmol), 1 mM dATP, and 1 mM dTTP were incubated at 37° C. for 1 hr, and the reactions were terminated by adding 20 μl of […] streptavidin-coated Dynabeads suspension containing 10 mM Tris-HCl (pH 7.5), 1 mM EDTA, 2M KCl, and a 500 cpm biotinylated internal control. Streptavidin-coated Dynabeads bind selectively to the desired target (5′-biotinylated primer), forming a magnetic bead-targeted complex. The complex was separated from the suspension using a Dynal MPC magnet and washed several times with 2×SSC buffer containing 0.1% SDS to eliminate [α-^32P]-dGTP background. Telomerase reaction products were separated from the magnetic beads by protein denaturation with 5.7 M guanidine-HCl at 90° C. for 30 min. After ethanol precipitation, products were resolved on denaturating 10% polyacrylamide gel.

T1 sequence (P11388 whole entry): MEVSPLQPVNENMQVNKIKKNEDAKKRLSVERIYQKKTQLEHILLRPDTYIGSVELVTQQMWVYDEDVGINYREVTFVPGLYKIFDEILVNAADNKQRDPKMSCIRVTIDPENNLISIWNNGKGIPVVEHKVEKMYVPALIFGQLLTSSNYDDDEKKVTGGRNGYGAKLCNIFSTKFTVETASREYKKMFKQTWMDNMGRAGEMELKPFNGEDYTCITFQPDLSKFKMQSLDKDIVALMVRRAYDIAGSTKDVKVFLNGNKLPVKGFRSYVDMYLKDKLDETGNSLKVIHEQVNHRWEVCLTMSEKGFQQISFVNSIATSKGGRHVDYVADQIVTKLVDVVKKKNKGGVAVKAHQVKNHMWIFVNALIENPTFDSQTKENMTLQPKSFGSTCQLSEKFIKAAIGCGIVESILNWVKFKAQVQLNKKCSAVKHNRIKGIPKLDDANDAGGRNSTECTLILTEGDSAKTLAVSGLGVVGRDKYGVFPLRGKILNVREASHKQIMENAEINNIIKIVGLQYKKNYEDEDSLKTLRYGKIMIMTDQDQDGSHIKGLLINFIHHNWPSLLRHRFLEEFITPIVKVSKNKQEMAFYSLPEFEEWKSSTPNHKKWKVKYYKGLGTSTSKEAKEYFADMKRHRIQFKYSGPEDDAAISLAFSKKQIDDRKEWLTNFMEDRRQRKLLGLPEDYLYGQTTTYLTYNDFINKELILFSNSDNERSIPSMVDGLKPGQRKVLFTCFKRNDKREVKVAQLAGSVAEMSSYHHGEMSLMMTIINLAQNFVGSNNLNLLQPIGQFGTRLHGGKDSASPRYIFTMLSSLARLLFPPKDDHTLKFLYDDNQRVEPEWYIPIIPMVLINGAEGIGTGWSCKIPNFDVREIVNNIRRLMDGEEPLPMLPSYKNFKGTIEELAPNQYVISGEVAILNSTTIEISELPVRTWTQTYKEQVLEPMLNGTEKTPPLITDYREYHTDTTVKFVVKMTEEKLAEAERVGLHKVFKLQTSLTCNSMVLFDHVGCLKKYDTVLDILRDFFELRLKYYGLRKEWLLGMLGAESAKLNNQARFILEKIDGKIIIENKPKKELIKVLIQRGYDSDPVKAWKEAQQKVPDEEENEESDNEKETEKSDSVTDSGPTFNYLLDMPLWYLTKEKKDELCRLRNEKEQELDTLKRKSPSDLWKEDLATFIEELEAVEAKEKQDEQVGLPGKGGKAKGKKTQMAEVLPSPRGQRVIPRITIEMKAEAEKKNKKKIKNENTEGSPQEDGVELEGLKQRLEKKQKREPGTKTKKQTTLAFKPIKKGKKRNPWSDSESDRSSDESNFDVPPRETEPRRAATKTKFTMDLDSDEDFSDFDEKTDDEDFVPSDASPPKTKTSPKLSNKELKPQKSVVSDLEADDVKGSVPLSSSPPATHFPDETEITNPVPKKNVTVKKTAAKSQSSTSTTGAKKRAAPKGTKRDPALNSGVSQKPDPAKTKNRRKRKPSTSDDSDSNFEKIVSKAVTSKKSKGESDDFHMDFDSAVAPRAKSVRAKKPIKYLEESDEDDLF

| SMILES | IC50 (DU-145 prostate) [µM] | IC50 (Raji lymphoma) [µM] | IC50 (MDA-231 breast) [µM] | IC50 (H226 non-small-cell lung) [µM] | IC50 (HT-29 colon) [µM] | IC50 (B16 melanoma) [µM] | IC50 (human topoisomerase II) [µM] | DNA unwinding concn (supercoiled pHOT1 DNA) [µM] | upfield shift of G6 imino resonance [1] [ppm] | telomerase inhibition (qualitative) (human telomerase) |
| --- | --- | --- | --- | --- | --- | --- | --- | --- | --- | --- |
| NC1CCN(c2c(F)cc3c(=O)c(C(=O)O)cn4c3c2Oc2ccc3ccccc3c2-4)C1 (racemic) [Compound 1a, 1-(3-Aminopyrrolidin-1-yl)-2-fluoro-4-oxo-4H-pyrido[3,2,1-k,l]-benzo[h]-phenoxazine-5-carboxylic Acid] | 0.2 ± 0.03 | 0.086 ± 0.006 | 0.15 ± 0.04 | 0.14 ± 0.01 | 0.18 ± 0.01 | 0.44 ± 0.06 | 0.77 |  |  |  |
| Cl.NC1CCN(c2c(F)cc3c(=O)c(C(=O)O)cn4c3c2Oc2ccc3ccccc3c2-4)C1 (stereo not drawn) [Compound 1b, 1-(3-Aminopyrrolidin-1-yl)-2-fluoro-4-oxo-4H-pyrido[3,2,1-k,l]-benzo[h]-phenoxazine-5-carboxylic Acid] | 0.36 ± 0.12 | 0.16 ± 0.07 | 0.35 ± 0.06 | 2.4 ± 0.1 | 0.36 ± 0.04 | 0.68 ± 0.05 | 1.22 | 35 |  |  |
| O=C1c2ccc3c4ccc5c6c(ccc(c7ccc(c2c37)C(=O)N1CCN1CCCCC1)c64)C(=O)N(CCN1CCCCC1)C5=O [N,N′-bis(2-piperdinoethyl)-3,4,9,10-perylenetetracarboxylic acid diimide] |  |  |  |  |  |  |  |  | > 0.2 |  |
| Cl.NC1CCN(c2c(F)cc3c(=O)c(C(=O)O)cn4c3c2Oc2c-4ccc3ccccc23)C1 (stereo not drawn) [Compound 2c, 1-(3-Aminopyrrolidin-1-yl)-2-fluoro-4-oxo-4H-pyrido[3,2,1-k,l]-benzo[f]-phenoxazine-5-carboxylic Acid] | 0.064 ± 0.007 | 0.02 ± 0.004 | 0.084 ± 0.007 | 0.027 ± 0.004 | 0.051 ± 0.006 | 0.18 ± 0.02 | 0.49 | 10 |  |  |
| Cl.NC1CCN(c2c(F)cc3c(=O)c(C(=O)O)cn4c3c2Oc2ccc3ccccc3c2-4)C1 (stereo not drawn) [Compound 1c, 1-(3-Aminopyrrolidin-1-yl)-2-fluoro-4-oxo-4H-pyrido[3,2,1-k,l]-benzo[h]-phenoxazine-5-carboxylic Acid] | 0.14 ± 0.01 | 0.082 ± 0.008 | 0.19 ± 0.04 | 0.13 ± 0.01 | 0.27 ± 0.04 | 0.13 ± 0.02 | 0.72 | 19 |  |  |
| O=C(O)c1cn2c3c(c(N4CCNCC4)c(F)cc3c1=O)Oc1c-2ccc2ccccc12 [Compound 5, 1-(Piperazin-1-yl)-2-fluoro-4-oxo-4H-pyrido[3,2,1-k,l]-benzo[f]phenoxazine-5-carboxylic Acid] | 0.14 ± 0.04 | 0.21 ± 0.04 | 0.38 ± 0.05 | 0.2 ± 0.03 | 0.36 ± 0.09 | 0.65 ± 0.06 | 1.84 | >100 |  |  |
| O=C(O)c1cn2c3c(c(N4CCNCC4)c(F)cc3c1=O)Oc1cc3ccccc3cc1-2 [Compound 6, 1-(Piperazin-1-yl)-2-fluoro-4-oxo-4H-pyrido[3,2,1-k,l]-benzo[g]phenoxazine-5-carboxylic Acid] | 0.075 ± 0.032 | 0.0072 ± 0.0076 | > 1000 | > 100 | 6.8 ± 1.8 | 0.045 ± 0.048 | 0.64 | >100 |  |  |
| O=C(O)c1cn2c3c(c(N4CCNCC4)c(F)cc3c1=O)Oc1ccc3ccccc3c1-2 [Compound 4, 1-(Piperazin-1-yl)-2-fluoro-4-oxo-4H-pyrido[3,2,1-k,l]-benzo[h]phenoxazine-5-carboxylic Acid] | 0.84 ± 0.27 | 0.8 ± 0.05 | 2.2 ± 0.3 | 2.1 ± 0.2 | 2 ± 0.2 | 2.1 ± 0.3 | 9.6 | >100 |  |  |

Continued by falling IC50 (DU-145 prostate), values first:

| IC50 (DU-145 prostate) [µM] | IC50 (Raji lymphoma) [µM] | IC50 (MDA-231 breast) [µM] | IC50 (H226 non-small-cell lung) [µM] | IC50 (HT-29 colon) [µM] | IC50 (B16 melanoma) [µM] | IC50 (human topoisomerase II) [µM] | SMILES | DNA unwinding concn (supercoiled pHOT1 DNA) [µM] | upfield shift of G6 imino resonance [1] [ppm] | telomerase inhibition (qualitative) (human telomerase) |
| --- | --- | --- | --- | --- | --- | --- | --- | --- | --- | --- |
| 0.048 ± 0.008 | 0.032 ± 0.005 | 0.021 ± 0.002 | 0.022 ± 0.015 | 0.022 ± 0.003 | 0.14 ± 0.015 | 0.42 | Cl.NC1CCN(c2c(F)cc3c(=O)c(C(=O)O)cn4c3c2Oc2cc3ccccc3cc2-4)C1 (stereo not drawn) [Compound 3b, 1-(3-Aminopyrrolidin-1-yl)-2-fluoro-4-oxo-4H-pyrido[3,2,1-k,l]-benzo[g]-phenoxazine-5-carboxylic Acid] | 15 |  |  |
| 0.03 ± 0.006 | 0.029 ± 0.005 | 0.01 ± 0.002 | 0.014 ± 0.002 | 0.023 ± 0.003 | 0.02 ± 0.006 | 0.44 | Cl.NC1CCN(c2c(F)cc3c(=O)c(C(=O)O)cn4c3c2Oc2cc3ccccc3cc2-4)C1 (stereo not drawn) [Compound 3c, 1-(3-Aminopyrrolidin-1-yl)-2-fluoro-4-oxo-4H-pyrido[3,2,1-k,l]-benzo[g]-phenoxazine-5-carboxylic Acid] | 13 |  |  |
| 0.025 ± 0.009 | 0.038 ± 0.006 | 0.023 ± 0.004 | 0.004 ± 0.002 | 0.028 ± 0.005 | 0.1 ± 0.01 | 0.77 | NC1CCN(c2c(F)cc3c(=O)c(C(=O)O)cn4c3c2Oc2cc3ccccc3cc2-4)C1 (racemic) [Compound 3a, 1-(3-Aminopyrrolidin-1-yl)-2-fluoro-4-oxo-4H-pyrido[3,2,1-k,l]-benzo[g]-phenoxazine-5-carboxylic Acid] |  |  |  |
| 0.017 ± 0.007 | 0.018 ± 0.001 | 0.027 ± 0.002 | 0.022 ± 0.002 | 0.03 ± 0.003 | 0.04 ± 0.004 | 0.55 | Cl.NC1CCN(c2c(F)cc3c(=O)c(C(=O)O)cn4c3c2Oc2c-4ccc3ccccc23)C1 (racemic) [Compound 2a, 1-(3-Aminopyrrolidin-1-yl)-2-fluoro-4-oxo-4H-pyrido[3,2,1-k,l]-benzo[f]-phenoxazine-5-carboxylic Acid] |  |  | dual-acting |
